Measured values as given in paper PMC12892976, “Alkylation-based optimization of antifungal FPPS inhibitors yields a potent, broad-spectrum lipophilic zoledronate derivative” (mBio, 2025).

Columns and labels:
[1] = tested on: Mucor circinelloides; experiment: checkerboard drug interaction (FICI, MICc); type: cell-based;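 further: simplified diagonal checkerboard screen pairing antifungals with FPPS inhibitors, FICI calculated under the Loewe additivity model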
Method: (§1) Drug interactions between antifungals and FPPS inhibitors were investigated using a simplified checkerboard diagonal screening method ([45]). […] FICIs were determined according to the Loewe additivity model ([17]).

[2] = tested on: Fusarium solani; experiment: checkerboard drug interaction (FICI, MICc); type: cell-based;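 further: simplified diagonal checkerboard screen pairing antifungals with FPPS inhibitors, FICI derived under the Loewe additivity model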
Method: as §1

[3] = tested on: Candida parapsilosis; experiment: checkerboard drug interaction (FICI, MICc); type: cell-based;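 further: simplified diagonal checkerboard screen pairing antifungals with FPPS inhibitors, with FICI computed under the Loewe additivity model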
Method: as §1

[4] = tested on: Aspergillus parafelis; experiment: checkerboard drug interaction (FICI, MICc);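 further: simplified diagonal checkerboard screen pairing antifungals with FPPS inhibitors, FICI calculated under the Loewe additivity model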
Method: as §1

[5] = tested on: Aspergillus frankstonensis; experiment: checkerboard drug interaction (FICI, MICc);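 further: simplified diagonal checkerboard screen pairing antifungals with FPPS inhibitors, FICI calculated using the Loewe additivity model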
Method: as §1

[6] = tested on: Nannizzia nana; experiment: checkerboard drug interaction (FICI, MICc); type: cell-based;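 further: simplified diagonal checkerboard screen pairing antifungals with FPPS inhibitors, FICI calculated under the Loewe additivity model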
Method: as §1

[7] = tested on: Lomentospora prolificans; experiment: checkerboard drug interaction (FICI, MICc);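 further: simplified diagonal checkerboard screen pairing antifungals with FPPS inhibitors, FICI calculated under the Loewe additivity model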
Method: as §1

[8] = tested on: Scedosporium apiospermum; experiment: checkerboard drug interaction (FICI, MICc); type: cell-based;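 further: simplified diagonal checkerboard screen of antifungal plus FPPS inhibitor pairs, with FICI computed under the Loewe additivity model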
Method: as §1

[9] = tested on: Candida auris; experiment: MIC broth microdilution (CLSI); type: cell-based; settings: Candida auris CDC-0384
Method: (§2) Antifungal susceptibility was determined by broth microdilution according to the CLSI guidelines described in M27-Ed4 ([16]).

[10] = tested on: Cryptococcus tetragattii; experiment: checkerboard drug interaction (FICI, MICc); type: cell-based;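 further: simplified diagonal checkerboard screen pairing antifungals with FPPS inhibitors, with FICI calculated under the Loewe additivity model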
Method: as §1

[11] = tested on: Aspergillus frankstonensis; experiment: MIC broth microdilution (CLSI); type: cell-based; settings: Aspergillus frankstonensis DTO 341-F3
Method: as §2

[12] = tested on: Cryptococcus gattii; experiment: checkerboard drug interaction (FICI, MICc); type: cell-based;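 further: simplified diagonal checkerboard screen pairing antifungals with FPPS inhibitors, FICI computed under the Loewe additivity model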
Method: as §1

[13] = tested on: Cryptococcus gattii; experiment: MIC broth microdilution (CLSI); type: cell-based; settings: Cryptococcus gattii PNG27
Method: as §2

[14] = tested on: Scedosporium apiospermum; experiment: MIC broth microdilution (CLSI); type: cell-based; settings: Scedosporium apiospermum 04-16-022-2268
Method: as §2

[15] = tested on: Nannizzia nana; experiment: MIC broth microdilution (CLSI); type: cell-based; settings: Nannizzia nana R-133
Method: as §2

[16] = tested on: Trichophyton soudanense; experiment: checkerboard drug interaction (FICI, MICc); type: cell-based;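 further: simplified diagonal checkerboard screen pairing antifungals with FPPS inhibitors, FICI computed under the Loewe additivity model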
Method: as §1

O=P(O)(O)C(O)(Cn1ccnc1)P(=O)(O)O [ZOL, zoledronate]
8: bisphosphonate MICc ([1]; ZOL with VOR) | bisphosphonate MICc ([2]; ZOL with VOR) | bisphosphonate MICc ([5]; ZOL with FLC) | bisphosphonate MICc ([6]; ZOL with VOR) | bisphosphonate MICc ([16]; ZOL with KET)
0.51: FICI ([6]; KET:ZOL)
1: FICI ([3]; 5FC:ZOL) | FICI ([5]; KET:ZOL) | FICI ([6]; AMB:ZOL) | FICI ([7]; KET:ZOL)
0.63: FICI ([7]; ITR:ZOL) | FICI ([8]; FLC:ZOL) | FICI ([8]; KET:ZOL) | FICI ([12]; ITR:ZOL)
32: bisphosphonate MICc ([2]; ZOL with ITR) | bisphosphonate MICc ([3]; ZOL with CAS) | bisphosphonate MICc ([3]; ZOL with FLC) | bisphosphonate MICc ([3]; ZOL with ITR) | bisphosphonate MICc ([3]; ZOL with VOR) | bisphosphonate MICc ([4]; ZOL with CAS) | bisphosphonate MICc ([4]; ZOL with ITR) | bisphosphonate MICc ([5]; ZOL with ITR) | bisphosphonate MICc ([6]; ZOL with FLC) | bisphosphonate MICc ([6]; ZOL with KET) | bisphosphonate MICc ([7]; ZOL with VOR) | bisphosphonate MICc ([8]; ZOL with FLC) | bisphosphonate MICc ([8]; ZOL with KET) | bisphosphonate MICc ([10]; ZOL with CAS) | bisphosphonate MICc ([10]; ZOL with VOR) | bisphosphonate MICc ([12]; ZOL with FLC) | bisphosphonate MICc ([12]; ZOL with VOR)
64: bisphosphonate MICc ([2]; ZOL with AMB) | bisphosphonate MICc ([3]; ZOL with 5FC) | bisphosphonate MICc ([3]; ZOL with AMB) | bisphosphonate MICc ([4]; ZOL with AMB) | bisphosphonate MICc ([5]; ZOL with KET) | bisphosphonate MICc ([6]; ZOL with AMB) | bisphosphonate MICc ([6]; ZOL with CAS) | bisphosphonate MICc ([7]; ZOL with FLC) | bisphosphonate MICc ([7]; ZOL with ITR) | bisphosphonate MICc ([10]; ZOL with 5FC) | bisphosphonate MICc ([10]; ZOL with AMB) | bisphosphonate MICc ([12]; ZOL with AMB) | bisphosphonate MICc ([16]; ZOL with CAS)
3: FICI ([2]; 5FC:ZOL) | FICI ([7]; CAS:ZOL) | FICI ([8]; 5FC:ZOL) | FICI ([16]; 5FC:ZOL) | FICI ([16]; AMB:ZOL) | FICI ([16]; CAS:ZOL)
256 µg/mL: MIC / MEC [14]
≥4: FICI ([2]; CAS:ZOL) | FICI ([5]; 5FC:ZOL) | FICI ([5]; CAS:ZOL) | FICI ([6]; 5FC:ZOL) | FICI ([8]; CAS:ZOL) | FICI ([12]; CAS:ZOL)
1.06: FICI ([4]; ITR:ZOL) | FICI ([7]; VOR:ZOL)
1.46: FICI ([10]; VOR:ZOL)
256: bisphosphonate MICc ([2]; ZOL with 5FC) | bisphosphonate MICc ([2]; ZOL with CAS) | bisphosphonate MICc ([5]; ZOL with 5FC) | bisphosphonate MICc ([5]; ZOL with CAS) | bisphosphonate MICc ([6]; ZOL with 5FC) | bisphosphonate MICc ([7]; ZOL with 5FC) | bisphosphonate MICc ([7]; ZOL with AMB) | bisphosphonate MICc ([7]; ZOL with KET) | bisphosphonate MICc ([8]; ZOL with 5FC) | bisphosphonate MICc ([12]; ZOL with CAS)
1.13: FICI ([4]; AMB:ZOL) | FICI ([5]; VOR:ZOL) | FICI ([7]; FLC:ZOL) | FICI ([10]; 5FC:ZOL)
0.38: FICI ([2]; ITR:ZOL) | FICI ([3]; FLC:ZOL) | FICI ([12]; FLC:ZOL) | FICI ([16]; KET:ZOL)
1.1: FICI ([6]; VOR:ZOL)
0.49: FICI ([16]; VOR:ZOL)
128: bisphosphonate MICc ([2]; ZOL with FLC) | bisphosphonate MICc ([2]; ZOL with KET) | bisphosphonate MICc ([4]; ZOL with VOR) | bisphosphonate MICc ([5]; ZOL with AMB) | bisphosphonate MICc ([8]; ZOL with AMB) | bisphosphonate MICc ([8]; ZOL with VOR) | bisphosphonate MICc ([12]; ZOL with 5FC) | bisphosphonate MICc ([16]; ZOL with 5FC) | bisphosphonate MICc ([16]; ZOL with AMB)
0.56: FICI ([4]; CAS:ZOL) | FICI ([5]; FLC:ZOL) | FICI ([8]; ITR:ZOL)
0.75: FICI ([2]; AMB:ZOL) | FICI ([2]; FLC:ZOL) | FICI ([2]; KET:ZOL) | FICI ([3]; CAS:ZOL) | FICI ([6]; CAS:ZOL) | FICI ([7]; AMB:ZOL) | FICI ([10]; KET:ZOL) | FICI ([16]; FLC:ZOL) | FICI ([16]; ITR:ZOL)
4: bisphosphonate MICc ([3]; ZOL with KET) | bisphosphonate MICc ([10]; ZOL with ITR) | bisphosphonate MICc ([12]; ZOL with KET)
16: bisphosphonate MICc ([1]; ZOL with KET) | bisphosphonate MICc ([5]; ZOL with VOR) | bisphosphonate MICc ([6]; ZOL with ITR) | bisphosphonate MICc ([8]; ZOL with ITR) | bisphosphonate MICc ([10]; ZOL with FLC) | bisphosphonate MICc ([10]; ZOL with KET) | bisphosphonate MICc ([12]; ZOL with ITR) | bisphosphonate MICc ([16]; ZOL with FLC) | bisphosphonate MICc ([16]; ZOL with ITR) | bisphosphonate MICc ([16]; ZOL with VOR)
2: FICI ([4]; 5FC:ZOL) | FICI ([4]; KET:ZOL) | bisphosphonate MICc ([4]; ZOL with FLC) | FICI ([5]; AMB:ZOL)
512: bisphosphonate MICc ([4]; ZOL with 5FC) | bisphosphonate MICc ([4]; ZOL with KET) | bisphosphonate MICc ([7]; ZOL with CAS) | bisphosphonate MICc ([8]; ZOL with CAS)
1.25: FICI ([5]; ITR:ZOL) | FICI ([10]; AMB:ZOL) | FICI ([12]; 5FC:ZOL) | FICI ([12]; VOR:ZOL)
1.21: FICI ([3]; VOR:ZOL)
2.06: FICI ([10]; ITR:ZOL)
0.65: FICI ([6]; ITR:ZOL)
0.5: FICI ([3]; ITR:ZOL) | FICI ([4]; FLC:ZOL) | FICI ([4]; VOR:ZOL) | FICI ([6]; FLC:ZOL) | FICI ([10]; FLC:ZOL)
2.5: FICI ([7]; 5FC:ZOL) | FICI ([10]; CAS:ZOL)
0.53: FICI ([3]; KET:ZOL)
1.03: FICI ([2]; VOR:ZOL) | FICI ([12]; KET:ZOL)
1.5: FICI ([3]; AMB:ZOL) | FICI ([8]; AMB:ZOL) | FICI ([8]; VOR:ZOL) | FICI ([12]; AMB:ZOL)
128 µg/mL: MIC / MEC [9] | MIC / MEC [11] | MIC / MEC [13] | MIC / MEC [15]
